The structures appear in SMILES notation.

For the first test, the system named is human cancer cell lines.
Assay: not given
The following applies: three types of human cancer cell lines; cited from earlier work.
For `COc1cc(C(=O)n2ccc3c([N+](=O)[O-])c(OC)ccc32)cc(OC)c1OC` [(5-methoxy-4-nitroindol-1-yl)(3,4,5-trimethoxy-phenyl)methanone], the antiproliferative activity result is on record as “does not show any activity”.

Another test has as its target T1, DCTPP1 (Homo sapiens, UniProt Q9H773).
T1 sequence (Q9H773 1-170): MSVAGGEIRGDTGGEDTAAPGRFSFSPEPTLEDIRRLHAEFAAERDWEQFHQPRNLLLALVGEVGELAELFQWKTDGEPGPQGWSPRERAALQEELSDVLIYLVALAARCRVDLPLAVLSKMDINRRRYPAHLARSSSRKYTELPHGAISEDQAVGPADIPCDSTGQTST
Briefly: DCTPP1 inhibition assay (malachite green). Conditions: 35 nM DCTPP1, 35 μM dCTP, 20 minutes at 22° C.; read-out: IC50. It is filed as biochemical. How it is done:
DCTPP1 catalyzes the hydrolysis of dCTP to dCMP and PPi. By coupling the reaction to pyrophosphatase added in excess PPi is converted to Pi that can be detected by using the malachite green assay reagent. […] DCTPP1 diluted in assay buffer (100 mM Tris-acetate, 100 mM KCl, 10 mM magnesium acetate, 1 mM DTT and 0.005% Tween 20) fortified with E. coli pyrophosphatase (0.2 U/mL) is added to a final concentration of 35 nM. dCTP diluted in assay buffer is added to a final concentration of 35 μM. The reaction mixture is incubated with shaking for 20 minutes at 22° C. To 100 μl reaction mixture is added […] Malachite green assay reagent (0.095% Malachite green in 17% H2SO4, 1.5% Ammonium molybdate, 0.17% Tween 20) added followed by incubation with shaking for 15 minutes at 22° C. The absorbance of the assay plate is read at 630 nm using a SpectraMax plate reader (Molecular Devices).
For orientation: IC50 means the point on the concentration scale where inhibition reaches its midpoint. With `Cc1nc2c([N+](=O)[O-])c(Cl)c(Cl)cc2n1Cc1ccc(B(O)O)cc1` [Compound 2.2.44, (4-((5,6-dichloro-2-methyl-4-nitro-1H-benzo[d]imidazol-1-yl)methyl)phenyl)boronic acid], the IC50 came out at 47 nM.

Regarding `O=[N+]([O-])c1c(Cl)c(Cl)cc2c1nc(C1CC1)n2Cc1ccc(B(O)O)cc1` [Compound 2.2.45, (4-((5,6-dichloro-2-cyclopropyl-4-nitro-1H-benzo[d]imidazol-1-yl)methyl)phenyl)boronic acid], the 50% inhibitory concentration (IC50) came out at 27 nM.

On to `Cc1nc2c([N+](=O)[O-])c(Cl)c(Cl)cc2n1Cc1ccc(B2OC(C)(C)C(C)(C)O2)cc1` [Compound 2.2.49, 5,6-dichloro-2-methyl-4-nitro-1-(4-(4,4,5,5-tetramethyl-1,3,2-dioxaborolan-2-yl)benzyl)-1H-benzo[d]imidazole], for which the IC50 turned out to be 30 nM.

As for `Cc1nc2c([N+](=O)[O-])c(Cl)c(Cl)cc2n1Cc1ccc(B2OC(=O)CN(C)CC(=O)O2)cc1` [Compound 2.2.50, 2-(4-((5,6-dichloro-2-methyl-4-nitro-1H-benzo[d]imidazol-1-yl)methyl)phenyl)-6-methyl-1,3,6,2-dioxazaborocane-4,8-dione], the IC50 is 44 nM.

Take `COc1ccc(Cn2c(C(F)(F)F)nc3c([N+](=O)[O-])c(C)c(C)cc32)cc1` [Compound 2.2.58, 1-(4-methoxybenzyl)-5,6-dimethyl-4-nitro-2-(trifluoromethyl)-1H-benzo[d]imidazole]: the half-maximal inhibitory concentration (IC50) stood at 14 nM.

In the case of `Cc1cc2c(nc(C)n2Cc2ccc(B(O)O)cc2)c([N+](=O)[O-])c1C` [Compound 2.2.60, (4-((2,5,6-trimethyl-4-nitro-1H-benzo[d]imidazol-1-yl)methyl)phenyl)boronic acid], the 50% inhibitory concentration (IC50) came out at 65 nM.

The test is the same for the next values; noted with them: 35 nM DCTPP1, 35 μM dCTP, 20 minutes at 22° C.; read-out: IC50 (nM), class.
Regarding `Cc1nc2c([N+](=O)[O-])c(Cl)c(Cl)cc2n1Cc1ccc(S(C)(=O)=O)cc1` [Compound 2.2.41, 5,6-dichloro-2-methyl-1-(4-(methylsulfonyl)benzyl)-4-nitro-1H-benzo[d]imidazole], the IC50 lay in the range of 100 to 500 nM.

For the compound `Cc1nc(Cn2c(C)nc3c([N+](=O)[O-])c(Cl)c(Cl)cc32)cs1` [Compound 2.2.42, 4-((5,6-dichloro-2-methyl-4-nitro-1H-benzo[d]imidazol-1-yl)methyl)-2-methylthiazole], the IC50 was in the range of 100 to 500 nM.

Take `Cc1nc2c([N+](=O)[O-])c(Cl)c(Cl)cc2n1Cc1ccc(Cl)nc1` [Compound 2.2.43, 5,6-dichloro-1-((6-chloropyridin-3-yl)methyl)-2-methyl-4-nitro-1H-benzo[d]imidazole]: the IC50 fell in the range of 100 to 500 nM.

As to `O=[N+]([O-])c1c(Cl)c(Cl)cc2c1nc(C1CC1)n2Cc1ccc(B(O)O)cc1` [Compound 2.2.45, (4-((5,6-dichloro-2-cyclopropyl-4-nitro-1H-benzo[d]imidazol-1-yl)methyl)phenyl)boronic acid], the IC50 was less than 100 nM.

Turning to `Cc1nc2c([N+](=O)[O-])c(Cl)c(Cl)cc2n1Cc1ccccc1B(O)O` [Compound 2.2.46, (2-((5,6-dichloro-2-methyl-4-nitro-1H-benzo[d]imidazol-1-yl)methyl)phenyl)boronic acid], the IC50 was less than 100 nM.

Consider `Cc1nc2c([N+](=O)[O-])c(Cl)c(Cl)cc2n1Cc1cccc(B(O)O)c1` [Compound 2.2.47, (3-((5,6-dichloro-2-methyl-4-nitro-1H-benzo[d]imidazol-1-yl)methyl)phenyl)boronic acid], for which the IC50 was less than 100 nM.

Consider `Cc1nc2c([N+](=O)[O-])c(Cl)c(Cl)cc2n1CCc1ccc(B(O)O)cc1` [Compound 2.2.51, (4-(2-(5,6-dichloro-2-methyl-4-nitro-1H-benzo[d]imidazol-1-yl)ethyl)phenyl)boronic acid], for which the half-maximal inhibitory concentration (IC50) was in the range of 100 to 500 nM.

Turning to `COc1cc(Cn2c(C)nc3c([N+](=O)[O-])c(C)c(C)cc32)cc(OC)c1OC` [Compound 2.2.52, 2,5,6-trimethyl-4-nitro-1-(3,4,5-trimethoxybenzyl)-1H-benzo[d]imidazole], the IC50 is no less than 1000 nM.

With `Cc1cc2c(nc(C)n2Cc2cc3c(cc2Cl)OCO3)c([N+](=O)[O-])c1C` [Compound 2.2.53, 1-((6-chlorobenzo[d][1,3]dioxol-5-yl)methyl)-2,5,6-trimethyl-4-nitro-1H-benzo[d]imidazole], the 50% inhibitory concentration (IC50) was no less than 1000 nM.

As for `COc1ccc(Cn2c(C)nc3c([N+](=O)[O-])c(C)c(C)cc32)cc1` [Compound 2.2.54, 1-(4-methoxybenzyl)-2,5,6-trimethyl-4-nitro-1H-benzo[d]imidazole], the IC50 is less than 100 nM.

Turning to `Cc1cc2c(nc(C)n2Cc2ccc(Cl)cc2)c([N+](=O)[O-])c1C` [Compound 2.2.55, 1-(4-chlorobenzyl)-2,5,6-trimethyl-4-nitro-1H-benzo[d]imidazole], the IC50 is less than 100 nM.

On to `Cc1cc2c(nc(C)n2Cc2ccc(F)cc2)c([N+](=O)[O-])c1C` [Compound 2.2.56, 1-(4-fluorobenzyl)-2,5,6-trimethyl-4-nitro-1H-benzo[d]imidazole], for which the half-maximal inhibitory concentration (IC50) lay within 100 to 500 nM.

In the case of `Cc1cc2c(nc(C)n2Cc2ccc(OC(F)(F)F)cc2)c([N+](=O)[O-])c1C` [Compound 2.2.57, 2,5,6-trimethyl-4-nitro-1-(4-(trifluoromethoxy)benzyl)-1H-benzo[d]imidazole], the half-maximal inhibitory concentration (IC50) lay in the range of 100 to 500 nM.

Consider `Cc1cc2c(nc(C)n2C(C)c2ccccc2)c([N+](=O)[O-])c1C` (stereo not drawn) [Compound 2.2.59, 2,5,6-trimethyl-4-nitro-1-(1-phenylethyl)-1H-benzo[d]imidazole], for which the IC50 lay within 100 to 500 nM.

With `Cc1cc2c(nc(C(F)(F)F)n2Cc2ccc(B(O)O)cc2)c([N+](=O)[O-])c1C` [Compound 2.2.61, (4-((5,6-dimethyl-4-nitro-2-(trifluoromethyl)-1H-benzo[d]imidazol-1-yl)methyl)phenyl)boronic acid], the IC50 is less than 100 nM.

As to `CC1(C)CC(C)(C)c2c1cc1c(cnn1Cc1ccc(B(O)O)cc1)c2[N+](=O)[O-]` [Compound 2.2.64], the half-inhibitory concentration (IC50) is no less than 1000 nM.

As to `COc1ccc(Cn2c(Cc3ccccc3)nc3cccc([N+](=O)[O-])c32)cc1` [Compound 2.3.1, 2-benzyl-1-(4-methoxybenzyl)-7-nitro-1H-benzo[d]imidazole], the IC50 was no less than 1000 nM.

In the case of `COc1ccc(Cn2c(OC)nc3cccc([N+](=O)[O-])c32)cc1` [Compound 2.3.2, 2-methoxy-1-(4-methoxybenzyl)-7-nitro-1H-benzo[d]imidazole], the half-maximal inhibitory concentration (IC50) was no less than 1000 nM.

With `COc1ccc(Cn2c(-c3ccccc3)nc3cccc([N+](=O)[O-])c32)cc1` [Compound 2.3.3, 1-(4-methoxybenzyl)-7-nitro-2-phenyl-1H-benzo[d]imidazole], the IC50 is no less than 1000 nM.

As to `Cc1nc2cc(F)c(F)c([N+](=O)[O-])c2n1Cc1ccc(B(O)O)cc1` [Compound 2.3.4, (4-((5,6-difluoro-2-methyl-7-nitro-1H-benzo[d]imidazol-1-yl)methyl)phenyl)boronic acid], the 50% inhibitory concentration (IC50) is 500 to 1000 nM.

(Values after US20170305893A1 (Thomas Helledays Stiftelse for Medicinsk Forskning, priority 2014, published 2017).)
